For one data set, the system named is rod photoreceptors. The data set can be described thus: Scotopic flash ERG (a- and b-wave) after blue light-induced injury, model of dry AMD. The class given is in vivo, rat. The settings on record: for protection of retinal signaling: doses greater of 1 mg/kg, blue-light induced damage model in rodent; for protection of rod photoreceptors from blue light-induced injury: model of dry AMD. An excerpt:
Seven days after exposure to 10,000 lux blue light, the amplitude of a- and b-wave components of the electroretinogram (ERG) is reduced to 20-30% of its pre-exposure amplitude (FIG. 4A). The ERG signals from median respondents in each group are shown in the inset in A. The tracing designated “α” illustrates the signal evoked in a naïve animal when stimulated with 20 candela-sec/m^2 white light. […] Full dose response showing the dose and corresponding retinal concentration of zalospirone is shown in the bar graph (FIG. 4A).
Seven days after exposure to 10,000 lux blue light, the amplitude of a- and b-wave components of the electroretinogram (ERG) is reduced to 20-30% of its pre-exposure amplitude (A). Full dose response showing the dose and corresponding retinal concentration of eptapirone is shown in the bar graph (A). The respective doses and corresponding retinal concentrations achieved following subcutaneous administration of eptapirone are shown on the abscissa. Data is plotted as the mean±SEM percentage of a- or b-wave measured prior to blue light-induced retinal degeneration. Protection of retinal architecture measured as the area of the outer nuclear layer (B) or the size of the lesion (C) in a section taken through the vertical meridian of the eye. H&E stained sections of from the median respondent, naïve and vehicle- or drug-treated animals illustrate the level protection achieved by treatment with 0.3 mg/kg eptapirone.
(§1) Bilateral flash ERG recordings on the dual dome Espion E^3 system (Diagnosys, LLC) were made prior to (baseline) and on the Day of zalospirone administration. Animals were anesthetized with a cocktail of 30 mg/mL Ketamine/0.2 mg/mL Dexmedetomidine (i.m.) to reach a final dose of 15 mg/kg Ketamine and 0.1 mg/kg Dexmedetomidine. Animals' eyes were given 1 drop each of 1% phenylephrine, 0.5% atropine and 1% proparacaine, sequentially. Noninvasive platinum wire loop electrodes moisturized with artificial tears (Goniovisc, Sigmapharmaceuticals, Inc.) were placed over the eyes, a reference electrode were placed in the bridge of the nose and a ground wire into the tail. Scotopic ERG measurements were made at 1e^−5 to 20 cd s/m^2. Photopic ERG measurements for S- and M-cone function were made at 8e^−4 to 40 cd s/m^2. The recording filter was set at 300 Hz.
(§2) Protection of rod photoreceptors by zalospirone from light induced injury is exemplified in FIG. 4 and by eptapirone in FIG. 5 below. Doses greater of 1 mg/kg provide 100% protection of structural integrity of the outer nuclear layer and 80% of retinal signaling in a blue-light induced damage model in rodent.

Data set [1] has as its system rod photoreceptors / outer nuclear layer. Description: Histological analysis (H&E) of retinal architecture after blue light-induced injury. Format: in vivo, rat. Particulars: for retinal lesion (loss of photoreceptors) measured in the vertical meridian of the eye: blue light injury, maximal damage 1.5 mm superior to the optic nerve head; for protection of structural integrity of the outer nuclear layer: doses greater of 1 mg/kg, blue-light induced damage model in rodent; for outer nuclear cell count and retinal structure (H&E stained retinas): post-blue light, drug-treated vs naive and vehicle-treated retinae. As for the experimental part: Protection of retinal architecture measured as the total count of photoreceptors (FIG. 4B) or the size of the lesion (FIG. 4C) in the section taken through the vertical meridian of the eye. (FIG. 4D) H&E stained sections of from the median respondent, naïve and vehicle- or drug-treated animals illustrate the level protection achieved by treatment with 1 mg/kg zalospirone.
On Day 7 post BL-exposure, animals were anesthetized with Euthasol and decapitated. Following decapitation, bilateral globes were enucleated and marked at the 12:00 position with black tissue ink. Both eyes from each animal were incubated in 5 mL of Davidson's fixative special overnight at RT. After ˜24 hours, both eyes were dehydrated in 50% ethanol (EtOH) for 1 hour at RT followed by storage in 70% EtOH at RT until paraffin processing. Eyes were then shipped to Premier Lab (Longmont, Colo.) for paraffin processing and embedding. Five micrometer thick paraffin sections were cut through the optic nerve head and mounted on glass.
For each eye, three H&E-stained slides were generated. Slides containing H&E-stained cross sections were imaged using the Nanozoomer whole slide scanner employing a 40× objective under bright field optics.
as §2

Another data set has as its target T1, 5-HT1A receptor (Homo sapiens, UniProt P08908).
T1 sequence (P08908 1-422): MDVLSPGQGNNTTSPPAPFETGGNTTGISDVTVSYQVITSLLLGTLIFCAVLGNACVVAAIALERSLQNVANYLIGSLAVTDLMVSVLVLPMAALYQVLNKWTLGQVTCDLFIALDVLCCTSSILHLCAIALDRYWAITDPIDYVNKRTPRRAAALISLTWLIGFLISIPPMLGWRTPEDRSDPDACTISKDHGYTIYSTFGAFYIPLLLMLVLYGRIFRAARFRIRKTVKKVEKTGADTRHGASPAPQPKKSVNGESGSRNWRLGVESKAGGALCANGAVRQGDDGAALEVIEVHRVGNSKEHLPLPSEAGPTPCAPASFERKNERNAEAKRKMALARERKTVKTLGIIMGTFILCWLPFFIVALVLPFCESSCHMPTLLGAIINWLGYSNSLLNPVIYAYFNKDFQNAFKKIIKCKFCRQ
The settings on record: description of the compound; cited from earlier work.

The subject of data set [2] is cone photoreceptors. Description: Photopic ERG for S- and M-cone function after blue light-induced injury. Format: in vivo, rat. The settings on record: pretreatment with 3 mg/kg; 7 days after 10,000 lux blue light.
Text: (§3) FIG. 6A to 6E illustrate that zalospirone protects cone photoreceptors from blue light-induced injury in a model of dry AMD. […] The amplitude of the medium-wave (blue- and green-light responsive) cone driven ERG signals were reduced by >90% while the short-wave (ultra violet and blue-light responsive) cone signals were virtually eliminated (A, B).
as §1
The protection of cone photoreceptors by zalospirone from light induced injury is exemplified in FIG. 6 below.

Data set [3] has as its system cone photoreceptors. Description: Anti-opsin immunofluorescence in retinal cross sections after blue light-induced injury. Format: in vivo, rat. The settings on record: pretreatment with 3 mg/kg.
Text: as §3
A subset of 5 μm thick paraffin sections cut through the vertical meridian (prepared by Premier Labs) was not stained with H&E, but instead was subjected to anti-opsin immunofluorescent staining to detect both SW and M/L cones. Briefly, sections were baked at 60° C. for 1 hr, deparaffinized in xylene, rehydrated in a decreasing series of alcohols, rinsed in PBS 3×, and blocked in PBS containing 0.1% Tween 20, 0.1% Triton×100, and 5% normal donkey serum for 2 hr at RT. Slides were reacted 0/N at 4° C. with a combined mixture of anti-SW (SCBT; SC-14363) and -M/L (Millipore, Ab5405) opsin antibodies diluted to 1:200 and 1:500, respectively in a PBS buffer containing 0.1% Tween 20, 0.1% Triton×100, and 5% normal donkey serum. To control for specificity of staining, an additional subset of slides were reacted with a combined mixture of anti-SW opsin antibody preadsorbed with sc-14363/blocking peptide and normal rabbit IgG. […] The number of SW and M/L cones was manually counted for both slides from each study eye in dual channel fluorescent images. […]

A further data set concerns retinal signaling. The data set can be described thus: Full-field ERG (modified ISCEV protocols) in normal animals, scotopic and photopic. Format: in vivo, rat. The protocol: FIG. 7 illustrates that zalospirone selectively enhances the scotopic b-wave. Visual function was assessed in vivo in the rat using standard ISCEV protocols. Measurements were made under scotopic (dark-adapted) conditions (“A”-“C”) or photopic conditions (“D”,“E”). In dark adapted animals, ERG recordings elicited by low intensity stimuli (1×10^−4 candela-sec m^2) treatment with 3 mg/kg zalospirone results in a 50% enhancement of the b-wave (“A”). […] Under photopic conditions signals predominately driven by the cone photoreceptors, the photopic b-wave (“D”) or ERG response to 20 Hz flicker (“E”) were unaffected by treatment with zalospirone (3 mg/kg).
FIG. 8 “A” to “C” illustrates that zalospirone selectively enhances the scotopic b-wave.
as §1
In addition to protecting retinal photoreceptors and preserving their function during exposure to an insult, the enhancement or normalization of retinal signaling after injury would be provide significant value in degenerative retinal diseases. The International Society for Clinical Electrophysiology of Vision (ISCEV) provides standards for ascertaining the effects of interventions on retinal signaling. […] Expanding on the observation that scotopic signaling was enhanced in normal animals, it was hypothesized that zalospirone could contribute to the normalization of retinal signaling following injury.

For the next data set, the system named is scotopic b-wave. The data set can be described thus: Scotopic b-wave ERG with treatment after blue light-induced injury. The class given is in vivo, Sprague Dawley rat. Particulars: single subcutaneous 3 mg/kg given after blue light injury (3.5 hour, 10,000 lux); stimulus 10^−5 candela-sec/m^2; N=8. The protocol: FIGS. 9A and 9B illustrate that treatment with zalospirone restores of the amplitude of the scotopic b-wave following light induced injury. FIG. 9A is a representative ERG recordings from a Sprague Dawley rat which was dark adapted overnight and exposed to white light stimulus (10^−5 candela-sec/m^2) are shown at baseline before injury, 7 days following exposure to a 3.5 hour exposure to 10,000 lux blue light and again at 3 days later following a single subcutaneous administration to 3 mg/kg zalospirone. […] The data are presented as mean±SEM, N=8.
as §1, with “The recording filter was set at 300 Hz.” left out

Setting [4] is: 7 days after 10,000 lux blue light.
The mark [5] stands for this setting: 3 mg/kg, dark adapted, 20 candela-sec m^2.
Where [6] appears, read: 3 mg/kg, photopic conditions, normal animals.

Molecules are shown by their SMILES. Entries after “also recorded” stand apart in the source; their conditions may differ.

With `Cn1c(=O)cnn(CCCCN2CCN(c3ncccn3)CC2)c1=O` [eptapirone, 4-Methyl-2-[4-(4-pyrimidin-2-yl-piperazin-1-yl)-butyl]-2H-[1,2,4]triazine-3,5-dione], the “protection of retinal signaling” value with rod photoreceptors turned out to be 80%. Further, in the data set on rod photoreceptors (setting [4]), the “protection of rod photoreceptors from blue light-induced injury” value is recorded as “protects rod photoreceptors from blue light-induced injury”. In data set [1], the “retinal lesion (loss of photoreceptors) measured in the vertical meridian of the eye” value was “almost entirely prevents this lesion from forming”; the “protection of structural integrity of the outer nuclear layer” value is recorded as 100%; the “outer nuclear cell count and retinal structure (H&E stained retinas)” value is on record as “maintains outer nuclear cell count but also normalizes retinal structure”. For the same compound, at 5-HT1A receptor, the 5-HT1A receptor activity entry was “very potent and highly selective 5-HT1A receptor full agonist”.
Regarding `O=C1[C@@H]2C3C=CC([C@H]4CC[C@@H]34)[C@@H]2C(=O)N1CCCCN1CCN(c2ncccn2)CC1` [zalospirone, (3aα,4α,4aβ,6aβ,7α,7aα)-hexahydro-2-(4-(4-(2-pyrimidinyl)-1-piperazinyl)butyl)-4,7-etheno-1H-cyclobut(f)isoindole-1,3(2H)-dione], the “protection of retinal signaling” value in the data set on rod photoreceptors is reported as 80%. Further, in the data set on rod photoreceptors (median animal dosed with 3 mg/kg, 7 days after 10,000 lux blue light, 20 candela-sec/m^2 white light stimulus), the “protection of the ERG signal” value was “complete protection”. For the same compound, the “protection of rod photoreceptors from blue light-induced injury” value in the data set on rod photoreceptors (setting [4]) is given as “protects rod photoreceptors from blue light-induced injury”. Besides, in data set [1], the “retinal lesion (loss of photoreceptors) measured in the vertical meridian of the eye” value is “almost entirely prevents this lesion from forming”; the “protection of structural integrity of the outer nuclear layer” value was found to be 100%; the “outer nuclear cell count and retinal structure (H&E stained retinas)” value is recorded as “maintains outer nuclear cell count but also normalizes retinal structure”. In the data set on cone photoreceptors [2], the “photopic b-wave amplitude (medium-wave and short-wave cone driven ERG signals)” value is “significantly protected; also recorded: largely restored ERG signaling”. Besides, the “cones by short wave and medium/long wave opsin immunofluorescent staining” value in the data set on cone photoreceptors [3] was “virtually identical to that in naïve animals; also recorded: prevents the loss of cones”. Moreover, the “rod-based signaling (scotopic b-wave)” value in the data set with retinal signaling (3 mg/kg, dark adapted rats, low intensity stimuli ≦10^−3 candelas-sec/m^2) was “preferentially augments rod-based signaling”. In addition, in the data set with retinal signaling (setting [5]), the retinal oscillatory potentials result is listed as “neither the b-wave (“B”) nor the retinal oscillatory potentials (“C”) were affected” and the “scotopic b-wave at greater intensity stimuli” value is “neither the b-wave (“B”) nor the retinal oscillatory potentials (“C”) were affected”. The “enhancement of the scotopic b-wave” value with retinal signaling (3 mg/kg, dark adapted, low intensity stimuli 1×10^−4 candela-sec m^2) was 50%. In the data set on retinal signaling (setting [6]), the “ERG response to 20 Hz flicker” value is given as “unaffected” and the photopic b-wave result was “unaffected”. Also, the “scotopic signaling, modified ISCEV full-field electroretinography” value in the data set on retinal signaling (rat) is recorded as “selectively enhanced scotopic signaling”. In addition, the “scotopic b-wave amplitude after injury compared with baseline” value with scotopic b-wave is “fully restored the b-wave to its baseline amplitude; also recorded: restored b-wave amplitudes to the baseline levels”. Also, on 5-HT1A receptor, the 5-HT1A receptor activity entry is reported as “selective 5-HT1A partial agonist”.

The values above are taken from patent US20150328221A1, “COMPOUNDS FOR PROTECTION OF PHOTORECEPTOR CELLS AND FOR ENHANCING VISUAL FUNCTION UNDER LOW LIGHT CONDITIONS” (Allergan, Inc., priority 2014, published 2015).
